Values quoted from earlier work as cited in patent US7601707B1, “Method for instantly relieving tissue inflammation” (priority 2003, dated 2009).

Legend:
[1] = dose at which some people begin to feel toxic systemic effects; not considered lethal
[2] = in vivo

SMILES: CCCNC(C)C(=O)Nc1c(C)csc1C(=O)OC (stereo not drawn) [Articaine]
- Max dose Mg/Kg [1]: 7.0 Mg/Kg
- Half-life [2]: 0.333 h

SMILES: CCCCN1CCCCC1C(=O)Nc1c(C)cccc1C (stereo not drawn) [Bupivicaine]
- Max dose Mg/Kg [1]: 1.3 Mg/Kg
- Half-life [2]: 3.5 h

SMILES: C[C@@H]1C[C@H]2[C@@H]3CCC4=CC(=O)C=C[C@]4(C)[C@@]3(F)[C@@H](O)C[C@]2(C)[C@@]1(O)C(=O)CO [Dexamethasone]
- water solubility: very water-soluble

SMILES: CCCN(CC)C(CC)C(=O)Nc1c(C)cccc1C (stereo not drawn) [Etidocaine]
- Max dose Mg/Kg [1]: 8.0 Mg/Kg
- Half-life [2]: 2.58 h

SMILES: CCN(CC)CC(=O)Nc1c(C)cccc1C [Lidocaine]
- Max dose Mg/Kg [1]: 7.0 Mg/Kg

SMILES: Cc1cccc(C)c1NC(=O)C1CCCCN1C (stereo not drawn) [Mepivicaine 2%, Mepivicaine]
- Max dose Mg/Kg [1]: 6.6 Mg/Kg
- Half-life [2]: 1.92 h

SMILES: CCCNC(C)C(=O)Nc1ccccc1C (stereo not drawn) [Prilocaine]
- Max dose Mg/Kg [1]: 8.0 Mg/Kg
- Half-life [2]: 1.5 h
